Patent US7083814B2, “Antiviral substances from plant cuticular and epicuticular material” (Rutgers, The State University of New Jersey, priority 2000, dated 2006)

Columns and labels:
HIV-1RF = assay: Anti-HIV-1 Cytoprotection Assay (XTT); conditions: AZT control
[1] = system: herpes simplex virus type 1 strain HF; assay: Anti-HSV-1 Cytoprotection Assay (CPE reduction, MTS)
in vitro = conditions: African green monkey

| IC50 (in vitro) [µM] | SMILES | positive control result (HIV-1RF) | IC50 ([1]; Human alphaherpesvirus 1) [µM] | IC50 ([1]; Human alphaherpesvirus 1, Vero) [µM] |
| --- | --- | --- | --- | --- |
| – | Cc1cn([C@H]2C[C@H](N=[N+]=[N-])[C@@H](CO)O2)c(=O)[nH]c1=O [AZT] | within the expected parameters | – | – |
| > 100 | Nc1nc2c(ncn2COCCO)c(=O)[nH]1 [Acyclovir] | – | 2.4 | 2.4 |
